PubChem BioAssay (NCI)
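Exposure lasted 48 hours, with cells grown in 96-well plates and compounds tested at five concentrations. GI50 marks 50% less growth. TGI is the concentration that stops growth completely.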

How the values were obtained:
Test in all cases: growth of human tumour cells (NCI), 48 h
786-0 renal = system: 786-0 renal
A498 renal = system: A498 renal
A549 NSCLC = system: A549 NSCLC
ACHN renal = system: ACHN renal
BT-549 breast = system: BT-549 breast
CAKI-1 renal = system: CAKI-1 renal
CCRF-CEM leukemia = system: CCRF-CEM leukemia
COLO 205 colon = system: COLO 205 colon
DU-145 prostate = system: DU-145 prostate
EKVX NSCLC = system: EKVX NSCLC
HCC-2998 colon = system: HCC-2998 colon
HCT-116 colon = system: HCT-116 colon
HCT-15 colon = system: HCT-15 colon
HL-60(TB) leukemia = system: HL-60(TB) leukemia
HOP-62 NSCLC = system: HOP-62 NSCLC
HOP-92 NSCLC = system: HOP-92 NSCLC
HS 578T breast = system: HS 578T breast
HT29 colon = system: HT29 colon
IGROV1 ovarian = system: IGROV1 ovarian
K-562 leukemia = system: K-562 leukemia
KM12 colon = system: KM12 colon
LOX IMVI melanoma = system: LOX IMVI melanoma
M14 melanoma = system: M14 melanoma
MALME-3M melanoma = system: MALME-3M melanoma
MCF7 breast = system: MCF7 breast
MDA-MB-231 breast = system: MDA-MB-231 breast
MDA-MB-435 = system: MDA-MB-435
MOLT-4 leukemia = system: MOLT-4 leukemia
NCI-H226 lung = system: NCI-H226 lung
NCI-H23 lung = system: NCI-H23 lung
NCI-H460 lung = system: NCI-H460 lung
NCI-H522 lung = system: NCI-H522 lung
NCI/ADR-RES ovarian = system: NCI/ADR-RES ovarian
OVCAR-3 ovarian = system: OVCAR-3 ovarian
OVCAR-4 ovarian = system: OVCAR-4 ovarian
OVCAR-5 ovarian = system: OVCAR-5 ovarian
OVCAR-8 ovarian = system: OVCAR-8 ovarian
PC-3 prostate = system: PC-3 prostate
RPMI-8226 leukemia = system: RPMI-8226 leukemia
RXF 393 renal = system: RXF 393 renal
SF-268 CNS = system: SF-268 CNS
SF-295 CNS = system: SF-295 CNS
SF-539 CNS = system: SF-539 CNS
SK-MEL-2 melanoma = system: SK-MEL-2 melanoma
SK-MEL-28 melanoma = system: SK-MEL-28 melanoma
SK-MEL-5 melanoma = system: SK-MEL-5 melanoma
SK-OV-3 ovarian = system: SK-OV-3 ovarian
SN12C renal = system: SN12C renal
SNB-19 CNS = system: SNB-19 CNS
SNB-75 CNS = system: SNB-75 CNS
SR leukemia = system: SR leukemia
SW-620 colon = system: SW-620 colon
T-47D breast = system: T-47D breast
TK-10 renal = system: TK-10 renal
U251 CNS = system: U251 CNS
UACC-257 melanoma = system: UACC-257 melanoma
UACC-62 melanoma = system: UACC-62 melanoma
UO-31 renal = system: UO-31 renal

How did the GI50 (786-0 renal) turn out when `CCn1cc(/C=C2\Oc3cc(OCC#N)ccc3C2=O)c2cc(OC)ccc21` was run?
The GI50 was 0.167 µM.

What about the TGI (786-0 renal) of the same compound?
Its TGI is over 40.9 µM.

What about the GI50 (A498 renal) of the same compound?
The GI50 was 10.3 µM.

What about the TGI (A498 renal) of the same compound?
Its TGI is over 100 µM.

What about the GI50 (A549 NSCLC) of the same compound?
Its GI50 is 2.48 µM.

What about the TGI (A549 NSCLC) of the same compound?
The TGI was over 100 µM.

And the GI50 (ACHN renal)?
Its GI50 is 0.847 µM.

What about the TGI (ACHN renal) of the same compound?
The TGI was over 100 µM.

And the GI50 (BT-549 breast)?
Its GI50 is 0.229 µM.

What about the TGI (BT-549 breast) of the same compound?
Its TGI is 20.3 µM.

And the GI50 (CAKI-1 renal)?
The GI50 was 0.0663 µM.

And the TGI (CAKI-1 renal)?
Its TGI is 28.9 µM.

And the GI50 (CCRF-CEM leukemia)?
The GI50 was 0.113 µM.

What about the TGI (CCRF-CEM leukemia) of the same compound?
Its TGI is over 100 µM.

And the GI50 (COLO 205 colon)?
Its GI50 is 0.348 µM.

What about the TGI (COLO 205 colon) of the same compound?
The TGI was 4.12 µM.

And the GI50 (DU-145 prostate)?
The GI50 was 0.44 µM.

And the TGI (DU-145 prostate)?
The TGI was over 62 µM.

What about the GI50 (EKVX NSCLC) of the same compound?
Its GI50 is 1.44 µM.

And the TGI (EKVX NSCLC)?
Its TGI is over 100 µM.

And the GI50 (HCC-2998 colon)?
Its GI50 is 1.86 µM.

What about the TGI (HCC-2998 colon) of the same compound?
Its TGI is over 100 µM.

What about the GI50 (HCT-116 colon) of the same compound?
The GI50 was 0.143 µM.

And the TGI (HCT-116 colon)?
The TGI was over 100 µM.

What about the GI50 (HCT-15 colon) of the same compound?
Its GI50 is 0.153 µM.

What about the TGI (HCT-15 colon) of the same compound?
Its TGI is over 100 µM.

What about the GI50 (HL-60(TB) leukemia) of the same compound?
The GI50 was 0.0872 µM.

And the TGI (HL-60(TB) leukemia)?
The TGI was 0.903 µM.

And the GI50 (HOP-62 NSCLC)?
Its GI50 is 0.622 µM.

What about the TGI (HOP-62 NSCLC) of the same compound?
Its TGI is over 46.6 µM.

What about the GI50 (HOP-92 NSCLC) of the same compound?
The GI50 was 11.2 µM.

What about the TGI (HOP-92 NSCLC) of the same compound?
Its TGI is 68.6 µM.

And the GI50 (HS 578T breast)?
The GI50 was 0.267 µM.

And the TGI (HS 578T breast)?
Its TGI is over 28.8 µM.

And the GI50 (HT29 colon)?
Its GI50 is 0.134 µM.

What about the TGI (HT29 colon) of the same compound?
The TGI was over 100 µM.

And the GI50 (IGROV1 ovarian)?
Its GI50 is 0.509 µM.

And the TGI (IGROV1 ovarian)?
The TGI was over 100 µM.

And the GI50 (K-562 leukemia)?
Its GI50 is 0.0888 µM.

And the TGI (K-562 leukemia)?
Its TGI is over 100 µM.

What about the GI50 (KM12 colon) of the same compound?
Its GI50 is 0.546 µM.

And the TGI (KM12 colon)?
Its TGI is over 100 µM.

And the GI50 (LOX IMVI melanoma)?
The GI50 was 0.238 µM.

What about the TGI (LOX IMVI melanoma) of the same compound?
Its TGI is over 100 µM.

And the GI50 (M14 melanoma)?
The GI50 was 0.119 µM.

What about the TGI (M14 melanoma) of the same compound?
Its TGI is over 100 µM.

And the TGI (MALME-3M melanoma)?
Its TGI is over 70.7 µM.

What about the GI50 (MCF7 breast) of the same compound?
Its GI50 is 0.209 µM.

And the TGI (MCF7 breast)?
The TGI was over 100 µM.

What about the GI50 (MDA-MB-231 breast) of the same compound?
Its GI50 is 1.47 µM.

What about the TGI (MDA-MB-231 breast) of the same compound?
Its TGI is over 77.3 µM.

What about the GI50 (MDA-MB-435) of the same compound?
The GI50 was 0.0764 µM.

And the TGI (MDA-MB-435)?
Its TGI is 0.263 µM.

And the GI50 (MOLT-4 leukemia)?
Its GI50 is 0.187 µM.

And the TGI (MOLT-4 leukemia)?
Its TGI is over 100 µM.

What about the GI50 (NCI-H226 lung) of the same compound?
Its GI50 is 6.65 µM.

What about the TGI (NCI-H226 lung) of the same compound?
The TGI was over 44.3 µM.

What about the GI50 (NCI-H23 lung) of the same compound?
The GI50 was 0.553 µM.

What about the TGI (NCI-H23 lung) of the same compound?
Its TGI is over 80.8 µM.

And the GI50 (NCI-H460 lung)?
The GI50 was 0.347 µM.

And the TGI (NCI-H460 lung)?
The TGI was over 100 µM.

What about the GI50 (NCI-H522 lung) of the same compound?
The GI50 was 2.46 µM.

What about the TGI (NCI-H522 lung) of the same compound?
Its TGI is 28.5 µM.

What about the GI50 (NCI/ADR-RES ovarian) of the same compound?
Its GI50 is 0.161 µM.

And the TGI (NCI/ADR-RES ovarian)?
The TGI was over 32.9 µM.

And the GI50 (OVCAR-3 ovarian)?
The GI50 was 0.127 µM.

What about the TGI (OVCAR-3 ovarian) of the same compound?
Its TGI is 4.94 µM.

And the GI50 (OVCAR-4 ovarian)?
Its GI50 is 11.2 µM.

And the TGI (OVCAR-4 ovarian)?
The TGI was over 100 µM.

And the GI50 (OVCAR-5 ovarian)?
The GI50 was 1.41 µM.

And the TGI (OVCAR-5 ovarian)?
Its TGI is over 100 µM.

And the GI50 (OVCAR-8 ovarian)?
The GI50 was 0.53 µM.

And the TGI (OVCAR-8 ovarian)?
The TGI was over 100 µM.

What about the GI50 (PC-3 prostate) of the same compound?
The GI50 was 0.218 µM.

What about the TGI (PC-3 prostate) of the same compound?
Its TGI is 53.8 µM.

What about the GI50 (RPMI-8226 leukemia) of the same compound?
The GI50 was 0.214 µM.

What about the TGI (RPMI-8226 leukemia) of the same compound?
The TGI was over 72.5 µM.

And the GI50 (RXF 393 renal)?
The GI50 was 0.152 µM.

And the TGI (RXF 393 renal)?
The TGI was 0.614 µM.

And the GI50 (SF-268 CNS)?
The GI50 was 1.48 µM.

What about the TGI (SF-268 CNS) of the same compound?
Its TGI is over 55.6 µM.

What about the GI50 (SF-295 CNS) of the same compound?
The GI50 was 0.221 µM.

And the TGI (SF-295 CNS)?
The TGI was 20.7 µM.

And the GI50 (SF-539 CNS)?
Its GI50 is 0.113 µM.

And the TGI (SF-539 CNS)?
The TGI was 0.818 µM.

What about the GI50 (SK-MEL-2 melanoma) of the same compound?
The GI50 was 0.807 µM.

And the TGI (SK-MEL-2 melanoma)?
Its TGI is over 68.5 µM.

And the GI50 (SK-MEL-28 melanoma)?
Its GI50 is 6.71 µM.

And the TGI (SK-MEL-28 melanoma)?
The TGI was over 100 µM.

What about the GI50 (SK-MEL-5 melanoma) of the same compound?
Its GI50 is 0.204 µM.

And the TGI (SK-MEL-5 melanoma)?
Its TGI is 4.17 µM.

What about the GI50 (SK-OV-3 ovarian) of the same compound?
Its GI50 is 1.7 µM.

What about the TGI (SK-OV-3 ovarian) of the same compound?
The TGI was over 78.5 µM.

What about the GI50 (SN12C renal) of the same compound?
Its GI50 is 0.711 µM.

What about the TGI (SN12C renal) of the same compound?
Its TGI is over 100 µM.

What about the GI50 (SNB-19 CNS) of the same compound?
The GI50 was 0.385 µM.

What about the TGI (SNB-19 CNS) of the same compound?
Its TGI is over 69.2 µM.

What about the GI50 (SNB-75 CNS) of the same compound?
Its GI50 is 0.527 µM.

And the GI50 (SR leukemia)?
Its GI50 is 0.102 µM.

What about the TGI (SR leukemia) of the same compound?
The TGI was over 100 µM.

And the GI50 (SW-620 colon)?
The GI50 was 0.131 µM.

And the TGI (SW-620 colon)?
Its TGI is over 100 µM.

And the GI50 (T-47D breast)?
The GI50 was 0.961 µM.

And the TGI (T-47D breast)?
Its TGI is over 100 µM.

And the GI50 (TK-10 renal)?
Its GI50 is 18.1 µM.

And the TGI (TK-10 renal)?
Its TGI is over 64.1 µM.

What about the GI50 (U251 CNS) of the same compound?
The GI50 was 0.425 µM.

And the TGI (U251 CNS)?
Its TGI is over 48.7 µM.

And the GI50 (UACC-257 melanoma)?
Its GI50 is 57.8 µM.

What about the TGI (UACC-257 melanoma) of the same compound?
Its TGI is over 100 µM.

And the GI50 (UACC-62 melanoma)?
The GI50 was 0.171 µM.

What about the TGI (UACC-62 melanoma) of the same compound?
The TGI was over 53.4 µM.

What about the GI50 (UO-31 renal) of the same compound?
The GI50 was 0.669 µM.

And the TGI (UO-31 renal)?
The TGI was over 100 µM.
